Data published in the supplement of paper PMC10307832.

Legend:
Test in all cases: relative viability (nuclei count vs DMSO), 5 days (fraction); higher = more cells survive
QS11 + Navitoclax = compound: C1CC2=C(C1)C=C(C=C2)OC3=NC(=C4C(=N3)N(C=N4)CC5=CC=C(C=C5)C6=CC=CC=C6)N[C@@H](CC7=CC=CC=C7)CO [QS11] + CC1(C)CCC(c2ccc(Cl)cc2)=C(CN2CCN(c3ccc(C(=O)NS(=O)(=O)c4ccc(N[C@H](CCN5CCOCC5)CSc5ccccc5)c(S(=O)(=O)C(F)(F)F)c4)cc3)CC2)C1 [Navitoclax] (partner 0.5 µM)
In short: (§1)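 Lung cancer cell lines in 1536-well plates got either a single drug or a fixed anchor-drug dose together with five library-drug doses (not always all listed) in √10 steps, by pin tool, on the day after seeding. Nuclei were counted after 5 days, and relative viability is the treated-to-vehicle ratio of nuclei counts. Values are medians of duplicate plates.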

Darinaparsin + Dasatinib = compound: C[As](C)SC[C@H](NC(=O)CC[C@H](N)C(=O)O)C(=O)NCC(=O)O [Darinaparsin] + Cc1nc(Nc2ncc(C(=O)Nc3c(C)cccc3Cl)s2)cc(N2CCN(CCO)CC2)n1 [Dasatinib] (partner 0.075 µM)
In short: as §1

QS11 + Lapatinib = compound: C1CC2=C(C1)C=C(C=C2)OC3=NC(=C4C(=N3)N(C=N4)CC5=CC=C(C=C5)C6=CC=CC=C6)N[C@@H](CC7=CC=CC=C7)CO [QS11] + CS(=O)(=O)CCNCc1ccc(-c2ccc3ncnc(Nc4ccc(OCc5cccc(F)c5)c(Cl)c4)c3c2)o1 [Lapatinib] (partner 2 µM)
In short: as §1

AZ628 + Vorinostat = compound: CC1=C(C=C(C=C1)NC(=O)C2=CC(=CC=C2)C(C)(C)C#N)NC3=CC4=C(C=C3)N=CN(C4=O)C [AZ628] + O=C(CCCCCCC(=O)Nc1ccccc1)NO [Vorinostat] (partner 1 µM)
In short: as §1

Cell Line	relative viability (QS11 + Navitoclax; first compound 0.08 µM)	relative viability (QS11 + Navitoclax; first compound 0.253 µM)	relative viability (QS11 + Navitoclax; first compound 2.53 µM)	relative viability (QS11 + Navitoclax; first compound 8 µM)	relative viability (Darinaparsin + Dasatinib; first compound 0.08 µM)	relative viability (Darinaparsin + Dasatinib; first compound 0.8 µM)	relative viability (Darinaparsin + Dasatinib; first compound 2.53 µM)	relative viability (Darinaparsin + Dasatinib; first compound 8 µM)	relative viability (QS11 + Lapatinib; first compound 0.08 µM)	relative viability (QS11 + Lapatinib; first compound 0.253 µM)	relative viability (QS11 + Lapatinib; first compound 2.53 µM)	relative viability (QS11 + Lapatinib; first compound 8 µM)	relative viability (AZ628 + Vorinostat; first compound 0.08 µM)	relative viability (AZ628 + Vorinostat; first compound 0.253 µM)	relative viability (AZ628 + Vorinostat; first compound 0.8 µM)	relative viability (AZ628 + Vorinostat; first compound 2.53 µM)	relative viability (AZ628 + Vorinostat; first compound 8 µM)	relative viability (QS11 + Navitoclax; first compound 0.8 µM)	relative viability (QS11 + Lapatinib; first compound 0.8 µM)
HCC-366	1.05	1.08	0.721	0.414	0.709	0.758	0.734	1.07	0.97	0.992	0.67	0.246	0.404	0.39	0.399	0.255	0.396		
HCC-827	0.987	1.01	0.944	0.899	0.268	0.397	0.243	0.309	0.176	0.226	0.243	0.227	0.963	0.795	0.906	0.921	0.552	0.833	0.158
HOP-62	1.07	1.15	0.785	1.22	0.708	0.786	0.434	0.693	0.95	1.18	0.892	0.983	0.641	0.701	0.641	0.432	0.289	1.04	0.863
IA-LM	0.762	0.828	0.5	0.614					1.13	1.02	0.589	0.596	1.01	0.962	0.657	0.722	0.21	0.69	0.513
LC-2-ad	0.407	0.357	0.335	0.384	0.683	0.628	0.454	0.466	0.91	1.09	1.04	0.921	0.78	0.865	0.796	0.74	0.656	0.488	0.627
LCLC-103H					0.577	0.449	0.409	0.533					0.727	0.804	0.776	0.712	0.728		
LK-2	0.763	0.888	0.762	1.11	0.201		0.301	0.274	1.04	1.15	0.829	1.3	0.272	0.244	0.396	0.275	0.222	0.975	1
LOU-NH91	0.626	0.572	0.657	0.723	0.632	0.512	0.49	0.622	0.742	0.622	0.731	0.685	1	0.911	0.904	0.794	0.675		
LU99A	0.867	0.841	0.847	0.592	0.627	0.59	0.473	0.519	0.83	1.17	0.963	0.637	0.511	0.473	0.496	0.52	0.33	0.937	1.15
LXF-289	0.98	0.948	0.859	0.619	0.228	0.204	0.164	0.213	0.941	0.909	0.821	0.739	0.817	0.755	0.701	0.71	0.473	0.715	0.757
NCI-H358					0.135	0.157	0.17	0.162	0.41	0.436	0.703	0.785	0.762	0.424	0.386	0.336	0.262		0.482
NCI-H441	0.452	1.04	0.723	0.529	0.6	0.581	0.558	0.737					0.782	0.749	0.67	0.673	0.68	0.673	
NCI-H522					0.853	0.902	0.804	0.918					0.924	0.891	0.95	0.82	0.695		
NCI-H650					0.529	0.515	0.42	0.486	0.83	0.907	0.801	0.667	0.454	0.63	0.554	0.673	0.44		1.13
NCI-H661					0.981	0.772	0.89	0.948	0.474	0.45	0.354	0.463	0.831	0.916	0.818	0.778	0.743		0.632
NCI-H1299	1.04	1.07	0.923	0.839					1.02	0.933	0.917	0.712						1.03	0.807
NCI-H1563					0.379	0.442	0.5	0.479	0.988	0.892	0.972	0.891							1.12
NCI-H1623					0.574	0.548	0.518	0.553											
NCI-H1648													0.544	0.372	0.333	0.375	0.323		
NCI-H1703	1.41	1.11	1.3	1.35					0.986	1.41	0.974	1.1						1.18	1.04
NCI-H1792		0.744	0.6	0.479	1.28	0.849	0.804	0.957		1.03	0.937	0.711						0.5	0.633
NCI-H2342					0.358	0.302	0.296	0.312					0.928	0.692	0.81	0.753	0.825		
SW 900					0.512	0.454	0.654	0.514					0.622	0.463	0.573	0.426	0.534		
